Results taken from patent US20210260096A1, “PHARMACEUTICAL COMPOSITION FOR TREATING WOUND OR ACTIVATING SKIN, CONTAINING BETA-GLUCAN, GLYCITIN, AND 4',6,7-TRIMETHOXYISOFLAVONE” (Quegen Biotech Co., Ltd., priority 2018, published 2021).

Tests used:
[1] = system: human keratinocytes (HaCaTs); assay: Differentiation, migration and invasion of epithelial cells under β-glucan single treatment; type: cell-based; settings: 0.5% β-glucan among 0 to 10%; FIG. 1
Experimental: (§1) The differentiation, migration and invasion of epithelial cells, such as human keratinocytes, and the differentiation of fibroblasts according to the single treatment of β-glucan were examined. β-glucan was produced by QUEGEN BIOTECH Co., LTD and used. Human dermal fibroblasts and human keratinocytes were purchased from Korean Cell Line Bank and used. The human dermal fibroblasts (HDFs) or the human keratinocytes (HaCaTs) were seeded in a 6-well plate containing […] of 10% FBS-containing DMEM at 1×10^4 cells/well (HDF) and 5×10^4 cells/well (HaCaT), and cultured under conditions of 37° C. and 5% CO2. During culture, the concentration of the epithelial cells (HaCaTs) and the fibroblasts were treated with 200 μL of β-glucan to have a concentration of 0 to 10% in a concentration dependent manner.

[2] = system: human dermal fibroblasts (HDFs); assay: Differentiation of fibroblasts under β-glucan single treatment; type: cell-based; settings: β-glucan 0 to 10%; FIG. 1
Experimental: as §1

[3] = system: HaCaTs and HDFs; assay: Proliferation and migration in Transwell HaCaT/HDF co-culture by composition of mixed solution; type: cell-based, human; settings: with respect to control PBS, 24 hours
Experimental: 5×10^4 cells/well of HaCaTs were seeded in the upper part and 1×10^4 cells/well of HDFs were seeded in the lower part of a Transwell invasion kit, […] of 10% FBS-containing DMEM and the three kinds of test solutions were treated and incubated under conditions of 37° C. and 5% CO2 for 24 hours, followed by determining an optimal concentration condition.

Substance: β-glucan
- differentiation, migration and invasion of epithelial cells by concentration [1]: optimal results
- differentiation of the fibroblasts [2]: no significant change
- Migration (%) ([3]; 0.1%): 110%
- Proliferation (%) ([3]; 0.1%): 105%
- Migration (%) ([3]; 0.25%): 130%
- Proliferation (%) ([3]; 0.25%): 111%
- Migration (%) ([3]; 0.5%): 151%
- Proliferation (%) ([3]; 0.5%): 120%
- Migration (%) ([3]; 0.7%): 153%
- Proliferation (%) ([3]; 0.7%): 125%
- Migration (%) ([3]; 1.0%): 161%
- Proliferation (%) ([3]; 1.0%): 122%
- Migration (%) ([3]; 1.5%): 110%
- Proliferation (%) ([3]; 1.5%): 118%
